Assay results: patent publication US8268961B2, “Antibacterial peptides and analogues thereof” (Universita Degli Studi di Siena, priority 2004, dated 2012)
Positions of bridges follow the written chain, without caps; N, C: chain ends. Chains are numbered I, II in the order given. No end group written: not given here.

Test system: Stenotrophomonas maltophilia PT4/99
Assay: MIC, standard microdilution assay
Type: cell-based
Conditions: Stenotrophomonas maltophilia PT4/99, wild-type profile
Description: MIC is defined as the lowest concentration, in an antibiotic dilution range, that inhibits visible bacterial growth. The importance of MIC sensitivity test is based on the principle that in vitro sensitivity provides a predictive indication of the in vivo efficacy of the antibiotic therapy. Values are expressed as molar concentration and compared to MIC values obtained with commercially available antibiotics such as amikacin, ceftriaxone and levofloxacin (Table 3).
Reference strains (Escherichia coli ATCC 25922, Pseudomonas aeruginosa ATCC 27853, Staphylococus aureus ATCC 25923 and Chryseobacterium meningosepticum CCUG 4310) and several recent clinical isolates (including multidrug-resistant ones) of various species (Table 2) were used for conventional susceptibility testing experiments. Minimum Inhibitory Concentration (MIC) was determined by a standard microdilution assay as recommended by the National Commitee for Clinical Laboratory Standards (NCCLS) using cation-supplemented Mueller-Hinton (MH) broth (Oxoid Ltd. Basingstoke, UK) and a bacterial inoculum of 5×10^4 CFU per well, in a final volume of 100 μl. Results were recorded by visual inspection after 24 h of incubation at 37° C.

I: QKKIRVRLSAKKA-OH / II: QKKIRVRLSAK / III: QKKIRVRLSA / IV: QKKIRVRLSA (amide I:11-IV:C, I:12-II:C, II:11-III:C) [M6, QKKIRVRLSA]
MIC (Molarity): >49 µM
